Data from US10188671B2, “Boron-dipyrrin complex and medicament containing the same” (JAPAN SCIENCE AND TECHNOLOGY AGENCY, priority 2015, dated 2019).

Key:
[1] = Optical properties in methanol; format: physicochemical
Description: The optical properties (in methanol) of compounds 2 to 4 synthesized were determined (Table 1). The compounds 2 to 4 each have maximum absorption at a wavelength at or near 500 nm and emit fluorescence at 509 nm. It was observed that introduction of a perfluoroalkyl group caused some decreases in light absorption coefficients, but little change in their fluorescence quantum yield.

[2] = Absorption spectrum measurement (Test Example 3); format: physicochemical; conditions: for shift of maximum absorption wavelength to the long-wavelength side: 8 vs compound 9, 11 vs F on boron, 12 with R^6 iodine; for Absorbance λmax: Table 2
Description: Each absorption spectrum was measured (Table 2). The maximum absorption wavelength of compound 8, in which the dimethylamino phenyl group of compound 9 was changed to a julolidine group, was shifted to the long-wavelength side by 30 nm than that of compound 9. […] The maximum absorption wavelength of compound 12, in which R^6 was iodine, was shifted to the long-wavelength side by 20 nm. This allowed the compound to be efficiently excited by light with a longer wavelength of over 650 nm. In the cases of the carboxyl group- or sulfonic acid group-substituted tetrahydroquinoline derivatives (compounds 13 to 16) so as to introduce a water-soluble substituent, the absorption wavelength was shifted to the short-wavelength side by about 10 nm than that of the julolidine-substituted derivative. It can be deduced from the above results that as the lone electron pair of the nitrogen atom is arranged more stably on the same plane as that of the benzene ring due to the condensed ring structure of the julolidine or tetrahydroquinoline, the absorption wavelength tends to be shifted more to the long-wavelength side.

Aβ1-42 [3] = biological target: T1, Aβ1-42 (Homo sapiens, UniProt P05067); experiment: In vitro Aβ1-42 oxygenation in phosphate buffer under 595 nm light, MALDI-TOF MS; format: biochemical; conditions: for Aβ1-42 oxygenation activity / rate of oxygenation of Aβ1-42: phosphate buffer pH 7.4, 37° C., light at 595 nm, FIG. 5
Description: (1) To check whether or not the compounds synthesized actually had Aβ oxygenation activity, in vitro oxygenation experiments were carried out using Aβ1-42 as a substrate. Compound 12 (20 μM) was added to a phosphate buffer solution (pH 7.4) containing Aβ1-42 (20 μM), and the mixture was incubated at 37° C. under LED light irradiation (at a wavelength of 595 nm). Then, a mass spectrometer (MALDI-TOF MS) was used to follow the reaction. Before the light irradiation, native Aβ1-42 and Na^+ adducts were primarily observed. […] (2) The Aβ1-42 oxygenation activities of compounds 8, 11, and 12 were compared (FIG. 5). First, 0.1% TFA aqueous solution containing o-acyliso-Aβ1-42 was diluted with a phosphate buffer solution (PB) (10 mM, pH 7.4) to prepare a native Aβ1-42 solution. To the resulting solution was added a DMSO catalyst stock solution (1.0 M). While incubated at 37° C., the mixture was irradiated with light at 595 nm. […] The heavy metal effect seems to enhance the efficiency of generating singlet oxygen.

[4] = system: angiotensin IV (AT-4), met-enkephalin (ME), and somatostatin (Sat); experiment: Aβ peptide selectivity test: oxygenation of non-amyloid model peptides; format: biochemical; conditions: same oxygenation conditions as for Aβ1-42, FIG. 9
Description: (§1) Compound 14 was used to investigate whether or not a compound of the present invention was able to selectively oxygenate Aβ. First, compound 14 (20 μM) was added to phosphate buffer solutions (pH 7.4) each containing Aβ1-42 (20 μM), angiotensin IV (20 μM) or a methionine enkephalin (20 μM), which solutions had been pre-incubated for 3 hours. The mixtures were incubated at 37° C. for 30 min under LED light irradiation (at a wavelength of 595 nm). Then, a mass spectrometer (MALDI-TOF MS) was used to follow the reaction. Three model peptides having a residue capable of being oxygenated were selected, including angiotensin IV (AT-4), met-enkephalin (ME), and somatostatin (Sat). These three peptides were subjected to the same oxygenation conditions as for Aβ1-42 (FIG. 9).

Aβ1-42 [5] = biological target: T1, Aβ1-42; experiment: Aβ peptide selectivity test: oxygenation of Aβ1-42; format: biochemical; conditions: 20 μM, pH 7.4, pre-incubated 3 hours, 37° C., 30 min, LED 595 nm, FIG. 9
Description: as §1

[6] = Photostability under light irradiation (500 nm, methanol); format: physicochemical; conditions: methanol solution, light of 500 nm, 37° C., FIG. 2
Description: Next, a methanol solution containing each of compounds 2 to 4 was irradiated with light of 500 nm, and incubated at 37° C. Then, a change in the time course of the absorbance at the maximum light absorption wavelength was measured to compare their photostability (FIG. 2). […] By contrast, compounds 3 and 4, having a perfluoroalkyl group, took 2 hours or longer until complete photofading. […] Reaction with singlet oxygen seems to be primarily responsible for the photofading under visible light irradiation. So, the photostability of the present compounds was considered from the viewpoint of the reactivity with singlet oxygen. First, the HOMO/LUMO levels of compounds 2 to 4 were calculated in accordance with a DFT algorithm (FIG. 3). […] As the HOMO level increases, the compounds are more susceptible to oxygenation by singlet oxygen. Thus, this calculation results agree with the results of the photostability test. […] This reflects the fact that the maximum absorption wavelength is unchanged.

T1 sequence (P05067 672-713 limits assumed): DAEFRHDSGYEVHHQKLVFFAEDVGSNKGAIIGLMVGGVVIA

| Compound | Absorbance λmax [1] | Emission λmax [1] | Φfl (fluorescence quantum yield) [1] | ϵ (light absorption coefficient) [1] | shift of maximum absorption wavelength to the long-wavelength side [2] | Absorbance λmax [2] | Aβ1-42 oxygenation activity (Aβ1-42 [3]) | further results |
| --- | --- | --- | --- | --- | --- | --- | --- | --- |
| CC1=CC(C)=[N+]2C1=Cc1c(C)cc(C)n1[B-]2(F)C(F)(F)C(F)(F)F (stereo not drawn) [Compound 4] | 503 nm | 509 nm | 0.79 | 72600 M⁻¹ cm⁻¹ |  |  |  |  |
| CC1=C(I)C(C)=[N+]2C1=Cc1c(C)cc(/C=C/c3cc4c5c(c3)CCCN5CCC4)n1[B-]2(F)C(F)(F)F (stereo not drawn) [Compound 12] |  |  |  |  | 20 nm | 660 nm | helped oxygenate Aβ1-42 under the light irradiation | Aβ1-42 oxygenation (oxygen adducts by MALDI-TOF MS) (Aβ1-42 [3]; compound 20 μM, Aβ1-42 20 μM, pH 7.4, 37° C., LED 595 nm, FIG. 4): there appeared ion peaks indicating the presence of oxygen adducts in a time-dependent manner; rate of oxygenation of Aβ1-42 (Aβ1-42 [3]): significantly faster |
| CC1=CC(C)=[N+]2C1=Cc1c(C)cc(/C=C/c3cc4c5c(c3)CCCN5CCC4)n1[B-]2(F)C(F)(F)F (stereo not drawn) [Compound 11] |  |  |  |  | almost no observable change | 640 nm | helped oxygenate Aβ1-42 under the light irradiation | rate of oxygenation of Aβ1-42 (Aβ1-42 [3]): faster oxygenation rate than the compounds 8 |
| Cc1cc2nc3c(=O)[nH]c(=O)nc-3n(C[C@H](O)[C@H](O)[C@H](O)CO)c2cc1C [riboflavin] |  |  |  |  |  |  |  | oxygenation of the other (non-amyloid) peptides [4]: a certain oxygenation activity on all the peptides; oxygenation activity toward Aβ1-42 (Aβ1-42 [5]): a certain oxygenation activity on all the peptides |
| CC1=CC(C)=[N+]2C1=Cc1c(C)cc(C)n1[B-]2(F)C(F)(F)F (stereo not drawn) [Compound 3] | 502 nm | 509 nm | 0.80 | 74000 M⁻¹ cm⁻¹ |  |  |  |  |
| CC1=CC(C)=[N+]2C1=Cc1c(C)cc(C)n1[B-]2(F)F [Compound 2, reference compound] | 502 nm | 509 nm | 0.80 | 81400 M⁻¹ cm⁻¹ |  |  |  | time to substantial photofading [6]: about 30 min |
| CC1=CC(C)=[N+]2C1=Cc1c(C)cc(/C=C/c3cc4c5c(c3)CCCN5CCC4)n1[B-]2(F)F [Compound 8] |  |  |  |  | 30 nm | 639 nm | helped oxygenate Aβ1-42 under the light irradiation |  |
